# Where a name gives a salt, the structure may show the parent alone.
# Legend:
# [1] = tested on: Male Sprague-Dawley rats; assay: Conditioned place preference test (CPP method): potential of test compound and addicting drugs to induce psychological dependence; type: in vivo, rat
# From the text: Effects of 1,4-(diphenylalkyl)piperazine derivatives on the potency of induction of psychological dependence by addicting drugs were studied by using the conditioned place preference test (CPP method) according to the report of Suzuki et al. (Life Science, 57, 1277-1284 (1995)).
# Test of Potential to Induce Psychological Dependence of Test Compound and Addicting Drugs
# Male Sprague-Dawley rats, body weight: about 250 g, 5.5 weeks old, were used in groups of eight.
# An apparatus was used wherein a rectangular parallelepiped box was divided into two compartments at the center in length by a sliding partition and one compartment was made white, while the other compartment was made black.
# A test compound and addicting drugs to be used were dissolved in physiological saline.
# The solutions of the test compound (0.3 mg/ml, 1 mg/ml and 3 mg/ml solutions) were administered subcutaneously to the rats (1 ml/kg) The solutions of the addicting drugs were administered subcutaneously to morphine administration groups (2 mg/ml, 4 mg/ml and 8 mg/ml solutions of morphine hydrochloride) and intraperitonealy to cocaine administration groups (2 mg/ml, 4 mg/ml and 8 mg/ml solutions of cocaine hydrochloride) and to methamphetamine administration groups (1 mg/ml, 2 mg/ml and 4 mg/ml) (1 ml/kg respectively). Physiological saline was administered by the same method as the method of administration of each administration group (1 ml/kg respectively).
# The rats were placed in the box from which the partition had been removed. Each cumulative time the rats had spent in the white compartment and the black compartment respectively was measured for 15 minutes, and the spent time in the compartment where the rats had spent a longer time (pre-value) was determined from a difference between them. This operation was carried out once a day for three days.
# The box was divided into two compartments by the partition. The solution of the addicting drug or the solution of the test compound was administered subcutaneously to the rats. The rats were confined for 50 minutes to the compartment in which the rats had spent a shorter time in pre-conditioning. The next day, physiological saline was administered subcutaneously to the rats and, next, the rats were confined for 50 minutes to the compartment in which the rats had spent a longer time. This training was repeated three times (2×3 days).
# The partition was removed from the box, and the conditioned rats were placed in the box. Each cumulative time the rats spent in the white compartment and the black compartment respectively was measured for 15 minutes, and the spent time in the compartment where the rats had spent a longer time (post value) was determined from a difference between them.
# The cumulative time the rats had spent in the respective compartments was measured by using an infrared sensor.
# The potential to induce psychological dependence was evaluated by using CPP scores (sec.) showing a motivational effect of the conditioning drug as an index.
# The motivational effects of the addicting drugs and the test compound, which were the conditioning drugs, were determined by the following equation.
# CPP score (sec.)=post value (sec.)−pre value (sec.)
# [2] = tested on: Male Sprague-Dawley rats; assay: Conditioned place preference test (CPP method): effect of test compound on potential of addicting drugs to induce psychological dependence; type: in vivo, rat; details: for Inhibition rate (%) of CPP score: average of eight
# From the text: (Life Science, 57, 1277-1284 (1995)). Effect of Test Compound on Potential of Addicting Drugs to Induce Psychological Dependence Male Sprague-Dawley rats, body weight: about 250 g, 5.5 weeks old, were used in groups of eight. An apparatus was used wherein a rectangular parallelepiped box was divided into two compartments at the center in length by a sliding partition and one compartment was made white, while the other compartment was made black. A test compound and addicting drugs to be used were dissolved in physiological saline. The solutions of the test compound (1 mg/ml and 3 mg/ml) were administered subcutaneously to the rats (1 ml/kg). […] The rats were placed in the box from which the partition had been removed. Each cumulative time the rats had spent in the white compartment and the black compartment respectively was measured for 15 minutes, and the spent time in the compartment where the rats had spent a longer time (pre value) was determined from a difference between them. This operation was carried out once a day for three days. The box was divided into two compartments by the partition. The solution of the test compound was administered to the rats, and 30 minutes later, the solution of the addicting drug was further administered to the rats. The rats were confined for 50 minutes to the compartment in which the rats had spent a shorter time in pre-conditioning. The next day, only physiological saline was administered to the rats, and next the rats were confined for 50 minutes to the compartment in which the rats had spent a longer time. This training was repeated three times (2×3 days). The partition was removed from the box, and the conditioned rats were placed in the box. Each cumulative time the rats had spent in the white compartment and the black compartment respectively was measured for 15 minutes, and the spent time in the compartment where the rats had spent a longer time (post value) was determined from a difference between them. The cumulative time the rats had spent in the respective compartments was measured by using an infrared sensor. The potential of the addicting drugs to induce psychological dependence was evaluated by using CPP scores (sec.) showing a motivational effect of the conditioning drug as an index. CPP score (sec.)=post value (sec.)−pre value (sec.) The effects of the test compound on the potential of the addicting drugs to induce psychological dependence was determined by the following equation as inhibition rates (%). Inhibition rate (%)=[(A−B)/A]×100 A: CPP score (sec.) of physiological saline administration group B: CPP score (sec.) of test compound administration group
# [3] = 2 mg/kg (morphine s.c., cocaine i.p.), average of eight
# [4] = 4 mg/kg (morphine s.c., cocaine i.p.), average of eight
# [5] = 8 mg/kg (morphine s.c., cocaine i.p.), average of eight
smiles,measurement,setting,value
"CN[C@@H](C)Cc1ccccc1.Cl [Methamphetamine, methamphetamine hydrochloride]","Potential to induce psychological dependence (motivational effect, in words)",[1]; all doses tested,appetitive effects
same,CPP score,"[1]; methamphetamine 1 mg/kg i.p., average of eight",155 s
same,CPP score,"[1]; methamphetamine 2 mg/kg i.p., average of eight",224 s
same,CPP score,"[1]; methamphetamine 4 mg/kg i.p., average of eight",151 s
"CN1CC[C@]23c4c5ccc(O)c4O[C@H]2[C@@H](O)C=C[C@H]3[C@H]1C5.Cl [Morphine, morphine hydrochloride]",CPP score,[1]; [3],171 s
same,CPP score,[1]; [4],187 s
same,CPP score,[1]; [5],228 s
same,"Potential to induce psychological dependence (motivational effect, in words)",[1]; all doses tested,appetitive effects
"COc1ccc(CCN2CCN(CCCc3ccccc3)CC2)cc1OC [Compound A, 1-[2-(3,4-dimethoxyphenyl)ethyl]-4-(3-phenylpropyl)piperazine dihydrochloride]",Inhibition rate (%) of CPP score,"[2]; Cocaine administration group (cocaine hydrochloride 4 mg/kg i.p.), Compound A 1 mg/kg s.c. 30 min before",26%
same,Inhibition rate (%) of CPP score,"[2]; Cocaine administration group (cocaine hydrochloride 4 mg/kg i.p.), Compound A 3 mg/kg s.c. 30 min before",55%
same,Inhibition rate (%) of CPP score,"[2]; Methamphetamine administration group (methamphetamine hydrochloride 2 mg/kg i.p.), Compound A 1 mg/kg s.c. 30 min before",55%
same,Inhibition rate (%) of CPP score,"[2]; Methamphetamine administration group (methamphetamine hydrochloride 2 mg/kg i.p.), Compound A 3 mg/kg s.c. 30 min before",57%
same,Inhibition rate (%) of CPP score,"[2]; Morphine administration group (morphine hydrochloride 8 mg/kg s.c.), Compound A 1 mg/kg s.c. 30 min before",38%
same,Inhibition rate (%) of CPP score,"[2]; Morphine administration group (morphine hydrochloride 8 mg/kg s.c.), Compound A 3 mg/kg s.c. 30 min before",50%
same,Effect on potential of addicting drugs to induce psychological dependence (in words),"[2]; morphine, cocaine and methamphetamine administration groups, 1 and 3 mg/kg",apparently inhibited the potential of the addicting drugs to induce psychological dependence
same,CPP score,"[1]; male, Sprague-Dawley, rat, in vivo, sc, 0.3 mg/kg, 6 days",-37 s
same,CPP score,"[1]; male, Sprague-Dawley, rat, in vivo, sc, 1 mg/kg, 6 days",-45 s
same,CPP score,"[1]; male, Sprague-Dawley, rat, in vivo, sc, 3 mg/kg, 6 days",-64 s
same,"Potential to induce psychological dependence (motivational effect, in words)","[1]; rat, in vivo",no potential to induce psychological dependence
"COC(=O)[C@H]1[C@@H](OC(=O)c2ccccc2)C[C@@H]2CC[C@H]1N2C.Cl [Cocaine, cocaine hydrochloride]",CPP score,[1]; [3],141 s
same,CPP score,[1]; [4],178 s
same,CPP score,[1]; [5],259 s
same,"Potential to induce psychological dependence (motivational effect, in words)",[1]; all doses tested,appetitive effects
